Measured values reported in patent US4973704A, “Pyrrolyl intermediates in the synthesis of pyrrole analogs of mevalonolactone and derivatives thereof” (Sandoz Pharm. Corp., priority 1989, dated 1990).
Read-outs that look alike come from different tables or passages of the source.

What was measured:
HMG-CoA reductase = molecular target: T1, HMG-CoA reductase (Rattus norvegicus, UniProt P51639); assay: Test A. In Vitro Microsomal Assay of HMG-CoA Reductase Inhibition; type: biochemical
T1 construct: from tissue; host or cells: microsomes (printed)
T1 sequence (P51639 1-887): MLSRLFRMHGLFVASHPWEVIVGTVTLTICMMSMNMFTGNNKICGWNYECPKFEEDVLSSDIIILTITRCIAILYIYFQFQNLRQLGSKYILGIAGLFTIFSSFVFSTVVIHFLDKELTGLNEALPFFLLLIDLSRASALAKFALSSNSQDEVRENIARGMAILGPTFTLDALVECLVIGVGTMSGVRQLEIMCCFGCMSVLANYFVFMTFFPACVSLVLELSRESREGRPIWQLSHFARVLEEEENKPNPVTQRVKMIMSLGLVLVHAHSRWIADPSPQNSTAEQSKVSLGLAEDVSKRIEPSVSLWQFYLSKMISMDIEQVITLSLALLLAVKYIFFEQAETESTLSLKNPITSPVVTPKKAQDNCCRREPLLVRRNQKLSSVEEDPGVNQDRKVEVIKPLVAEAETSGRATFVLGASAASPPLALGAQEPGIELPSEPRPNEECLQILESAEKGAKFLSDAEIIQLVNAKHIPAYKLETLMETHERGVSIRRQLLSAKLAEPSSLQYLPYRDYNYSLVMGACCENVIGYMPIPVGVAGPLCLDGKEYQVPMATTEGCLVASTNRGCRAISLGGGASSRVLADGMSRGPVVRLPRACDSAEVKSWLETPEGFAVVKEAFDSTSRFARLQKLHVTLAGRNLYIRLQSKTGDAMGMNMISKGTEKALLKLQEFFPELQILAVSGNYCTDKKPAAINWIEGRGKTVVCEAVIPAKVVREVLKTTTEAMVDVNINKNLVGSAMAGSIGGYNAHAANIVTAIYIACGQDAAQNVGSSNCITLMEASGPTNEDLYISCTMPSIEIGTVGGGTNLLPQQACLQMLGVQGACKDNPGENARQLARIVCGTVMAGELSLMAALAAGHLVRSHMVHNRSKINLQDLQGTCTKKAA
Procedure: Test A. In Vitro Microsomal Assay of HMG-CoA Reductase Inhibition:
This test is carried out precisely as described in column 53 of U.S. Pat. No. 4,613,610 and on page 30 of World (PCT) Published Patent Application No. 84/02131, both of which are hereby incorporated by reference as if set forth herein in their entirety. The concentration of the test substance (compound of Formula I) in the assay system is 0.0005-2,000 μmolar. The obtained IC50 is the concentration of the test substance in the assay system observed or calculated to produce a 50% inhibition of HMG-CoA reductase activity.

[1] = tested on: 3β-hydroxysterol synthesis; assay: Test B. In Vivo Cholesterol Biosynthesis Inhibition Test; conditions: Rattus norvegicus, po; rats, orally administered; read-out: ED50 (dose producing 50% inhibition of 3β-hydroxysterol synthesis)
Procedure: Test B. In Vivo Cholesterol Biosynthesis Inhibition Test:
In this test the rats are orally administered the test substance (compound of Formula I) at a dose of 0.1-200 mg/kg. body weight. The obtained ED50 is the dose of the test substance observed or calculated to produce a 50% inhibition of 3β-hydroxysterol synthesis.

[2] = in vitro microsomal assay, read-out: IC50 (concentration producing 50% inhibition of HMG-CoA reductase activity)

| IC50 (HMG-CoA reductase; [2]) [µM] | Structure (SMILES) | ED50 [1] [mg/kg] | IC50 (HMG-CoA reductase) [µM] |
| --- | --- | --- | --- |
| 1.1 | CC[C@H](C)C(=O)O[C@H]1CCC=C2C=C[C@H](C)[C@H](CC[C@@H]3C[C@@H](O)CC(=O)O3)[C@H]21 [Compactin] | – | – |
| 0.014 | CC(C)c1cc(-c2ccccc2)n(-c2ccc(F)cc2)c1/C=C/[C@@H](O)C[C@@H](O)CC(=O)O (relative stereo) [Example 2, Sodium (±)-erythro-(E)-3,5-dihydroxy-7-[1'-(4"-fluorophenyl)-3'-(1"-methylethyl)-5'-phenyl-1H-pyrrol-2'-yl]hept-6-enoate] | 0.53 | – |
| – | CC[C@H](C)C(=O)O[C@H]1C[C@@H](C)C=C2C=C[C@H](C)[C@H](CC[C@@H]3C[C@@H](O)CC(=O)O3)[C@H]21 [Mevinolin] | – | 0.72 |
